Read-outs that look alike come from different tables or passages of the source.
System: M. mycetomatis genome strain MM55
Experiment: CLSI M38-A2 based in vitro susceptibility screening (XTT or resazurin), growth at fixed concentration
Assay type: cell-based, Madurella mycetomatis
Settings: Madurella mycetomatis; for Percent fungal survival at 100 µM: read-out: Percentage survival at 100um, 100 uM A (second replicate column)
[1] = mean of three replicates, read-out: Percentage survival at 25um, 25 uM mean
[2] = replicate A, read-out: Percentage survival at 25um, 25 um A
[3] = replicate B, read-out: Percentage survival at 25um, 25 uM B
[4] = replicate C, read-out: Percentage survival at 25um, 25 uM C
[5] = mean of three replicates, read-out: Percentage survival at 100um, 100 uM mean
[6] = replicate 1, read-out: Percentage survival at 100um, 100 uM A (first replicate column)
[7] = replicate 3, read-out: Percentage survival at 100um, 100 uM A (third replicate column)
[8] = mean of three, M. mycetomatis MM55, read-out: Percentage survival at 25um, 25 uM mean
[9] = replicate A, M. mycetomatis MM55, read-out: Percentage survival at 25um, 25 um A
[10] = replicate B, M. mycetomatis MM55, read-out: Percentage survival at 25um, 25 uM B
[11] = replicate C, M. mycetomatis MM55, read-out: Percentage survival at 25um, 25 uM C
[12] = mean of three, M. mycetomatis MM55, read-out: Percentage survival at 100um, 100 uM mean
[13] = replicate 1, M. mycetomatis MM55, read-out: Percentage survival at 100um, 100 uM A (first replicate column)
[14] = replicate 2, M. mycetomatis MM55
[15] = replicate 3, M. mycetomatis MM55, read-out: Percentage survival at 100um, 100 uM A (third replicate column)
[16] = first replicate column, read-out: Percentage survival at 100um, 100 uM A
[17] = second replicate column, read-out: Percentage survival at 100um, 100 uM A
[18] = third replicate column, read-out: Percentage survival at 100um, 100 uM A
[19] = mean, read-out: Percentage survival at 25um, 25 uM mean
[20] = mean, read-out: Percentage survival at 100um, 100 uM mean
[21] = replicate (first column), read-out: Percentage survival at 100um, 100 uM A
[22] = replicate (second column), read-out: Percentage survival at 100um, 100 uM A
[23] = replicate (third column), read-out: Percentage survival at 100um, 100 uM A
[24] = mean of replicates, MM55, read-out: Percentage survival at 25um, 25 uM mean
[25] = replicate A, MM55, read-out: Percentage survival at 25um, 25 um A
[26] = replicate B, MM55, read-out: Percentage survival at 25um, 25 uM B
[27] = replicate C, MM55, read-out: Percentage survival at 25um, 25 uM C
[28] = mean of replicates, MM55, read-out: Percentage survival at 100um, 100 uM mean
[29] = replicate 1, MM55, read-out: Percentage survival at 100um, 100 uM A
[30] = replicate 2, MM55, read-out: Percentage survival at 100um, 100 uM A
[31] = replicate 3, MM55, read-out: Percentage survival at 100um, 100 uM A
[32] = mean of replicates, read-out: Percentage survival at 25um, 25 uM mean
[33] = mean of replicates, read-out: Percentage survival at 100um, 100 uM mean
[34] = replicate 1, read-out: Percentage survival at 100um, 100 uM A
[35] = replicate 2, read-out: Percentage survival at 100um, 100 uM A
[36] = replicate 3, read-out: Percentage survival at 100um, 100 uM A

CC(Cc1ccccc1)C(=O)Nc1ccc(Cl)cc1C(=O)O (stereo not drawn) [MMV1579781]
activity at 25 µM [1]: 92.5% | activity at 25 µM [2]: 104% | activity at 25 µM [3]: 93.1% | activity at 25 µM [4]: 80.7% | activity at 100 µM [5]: 85.9% | activity at 100 µM [6]: 87.4% | Percent fungal survival at 100 µM (replicate 2): 82.1% | activity at 100 µM [7]: 88.1%

C=C(C)n1c(=O)n(Cc2ccccc2C)c2ccccc21 [MMV1579354]
activity at 25 µM [8]: 79.6% | activity at 25 µM [9]: 93.1% | activity at 25 µM [10]: 79.3% | activity at 25 µM [11]: 66.5% | activity at 100 µM [12]: 9.54% | activity at 100 µM [13]: 2.4% | Percent fungal survival at 100 µM [14]: 21.4% | activity at 100 µM [15]: 4.84%

O=C(/C=C/n1cnc(-c2cc(C(F)(F)F)cc(C(F)(F)F)c2)n1)NNc1cnccn1 [MMV1593517]
activity at 25 µM [1]: 90.4% | activity at 25 µM [2]: 63% | activity at 25 µM [3]: 118% | activity at 25 µM [4]: 90.3% | activity at 100 µM [16]: 102% | activity at 100 µM [5]: 102% | activity at 100 µM [17]: 111% | activity at 100 µM [18]: 95%

CC(C)(C)NC(=O)N[C@H](C(=O)N1C[C@H]2[C@@H]([C@H]1C(=O)NC(CC1CCC1)C(=O)C(N)=O)C2(C)C)C(C)(C)C (stereo partly drawn) [MMV1580497]
activity at 25 µM [1]: 88.1% | activity at 25 µM [2]: 89.4% | activity at 25 µM [3]: 98% | activity at 25 µM [4]: 76.8% | activity at 100 µM [16]: 98.5% | activity at 100 µM [5]: 93.6% | activity at 100 µM [17]: 87.9% | activity at 100 µM [18]: 94.6%

Cc1cc(C2CCCCC2)n(O)c(=O)c1 [MMV002731]
activity at 25 µM [19]: 32% | activity at 25 µM [2]: -3.44% | activity at 25 µM [3]: 96.3% | activity at 25 µM [4]: 3.22% | activity at 100 µM [20]: 5.09% | activity at 100 µM [21]: -2.39% | activity at 100 µM [22]: 6.16% | activity at 100 µM [23]: 11.5%

O=C(O)CSc1cc(NS(=O)(=O)c2cccc3cccnc23)c2ccccc2c1O [MMV218827]
activity at 25 µM [24]: 91.4% | activity at 25 µM [25]: 90.9% | activity at 25 µM [26]: 95.2% | activity at 25 µM [27]: 88.2% | activity at 100 µM [28]: 89.8% | activity at 100 µM [29]: 82.4% | activity at 100 µM [30]: 84.7% | activity at 100 µM [31]: 102%

CC(C)(C)c1cc(CCC(=O)N2CCC2)cc(C(C)(C)C)c1O [MMV1229204]
activity at 25 µM [8]: 77.7% | activity at 25 µM [9]: 91.6% | activity at 25 µM [10]: 84.3% | activity at 25 µM [11]: 57% | activity at 100 µM [12]: 62.1% | activity at 100 µM [13]: 57.1% | Percent fungal survival at 100 µM [14]: 64% | activity at 100 µM [15]: 65.1%

CN(C)CC(=O)Nc1ccc2[nH]c(=O)c3ccccc3c2c1 [MMV1580480]
activity at 25 µM [24]: 94.3% | activity at 25 µM [25]: 106% | activity at 25 µM [26]: 107% | activity at 25 µM [27]: 70.4% | activity at 100 µM [28]: 76.4% | activity at 100 µM [29]: 87.1% | activity at 100 µM [30]: 63.4% | activity at 100 µM [31]: 78.7%

O=C(O)c1cc(-c2ccc(Br)cc2)nc2ccc(Cl)cc12 [MMV247764]
activity at 25 µM [24]: 73.4% | activity at 25 µM [25]: 82.6% | activity at 25 µM [26]: 78.8% | activity at 25 µM [27]: 58.9% | activity at 100 µM [28]: 54.4% | activity at 100 µM [29]: 60.9% | activity at 100 µM [30]: 52.4% | activity at 100 µM [31]: 49.8%

Cc1ccc(N2CCC(CCOc3ccc(S(C)(=O)=O)cc3)CC2)nn1 [MMV1634394]
activity at 25 µM [1]: 86.9% | activity at 25 µM [2]: 79.1% | activity at 25 µM [3]: 80.9% | activity at 25 µM [4]: 101% | activity at 100 µM [16]: 52.8% | activity at 100 µM [5]: 63.9% | activity at 100 µM [17]: 75.2% | activity at 100 µM [18]: 63.7%

OCCC#Cc1nc(-c2ccc(F)cc2)c(-c2ccncc2)n1CCCc1ccccc1 [MMV1580797]
activity at 25 µM [1]: 67.7% | activity at 25 µM [2]: 62% | activity at 25 µM [3]: 74.7% | activity at 25 µM [4]: 66.4% | activity at 100 µM [16]: 53.2% | activity at 100 µM [5]: 57.6% | activity at 100 µM [17]: 58.3% | activity at 100 µM [18]: 61.4%

Cc1ccn2c(C(=O)NCc3ccccc3)c(C)nc2c1 [MMV1579847]
activity at 25 µM [1]: 82.9% | activity at 25 µM [2]: 90.2% | activity at 25 µM [3]: 66.1% | activity at 25 µM [4]: 92.5% | activity at 100 µM [5]: 61.9% | activity at 100 µM [6]: 72.5% | Percent fungal survival at 100 µM (replicate 2): 55.8% | activity at 100 µM [7]: 57.5%

Fc1ccc2c(/C=C/c3cccnc3)c[nH]c2c1 [MMV1578889]
activity at 25 µM [19]: 76.9% | activity at 25 µM [2]: 86.3% | activity at 25 µM [3]: 56.6% | activity at 25 µM [4]: 87.7% | activity at 100 µM [20]: 58.2% | activity at 100 µM [21]: 83.4% | activity at 100 µM [22]: 19.8% | activity at 100 µM [23]: 71.5%

Cn1cc(NC(=O)c2cc(NC(=O)c3ccc(/C=C/c4cnc5ccccc5c4)cc3)cn2C)cc1C(=O)NCCN1CCOCC1 [MMV1634391]
activity at 25 µM [32]: 73.9% | activity at 25 µM [2]: 63.4% | activity at 25 µM [3]: 79.1% | activity at 25 µM [4]: 79.2% | activity at 100 µM [33]: 60.7% | activity at 100 µM [34]: 61% | activity at 100 µM [35]: 53.1% | activity at 100 µM [36]: 68%

O=C(NCc1cccc2ccccc12)c1cccs1 [MMV1579845]
activity at 25 µM [19]: 55.9% | activity at 25 µM [2]: 59.6% | activity at 25 µM [3]: 48.9% | activity at 25 µM [4]: 59.3% | activity at 100 µM [20]: 35% | activity at 100 µM [21]: 90% | activity at 100 µM [22]: 6.29% | activity at 100 µM [23]: 8.86%

CN(C)[C@@H]1C(=O)C(C(N)=O)=C(O)[C@@]2(O)C(=O)C3=C(O)c4c(O)c(NC(=O)CN5CCCC5)cc(F)c4C[C@H]3C[C@@H]12 [MMV1578574]
activity at 25 µM [32]: 74.6% | activity at 25 µM [2]: 58% | activity at 25 µM [3]: 94% | activity at 25 µM [4]: 72% | activity at 100 µM [33]: 93% | activity at 100 µM [34]: 92.7% | activity at 100 µM [35]: 96.8% | activity at 100 µM [36]: 89.4%

COc1ccc2nc(-c3ccccc3)cc(O)c2c1 [MMV011565]
activity at 25 µM [1]: 93.4% | activity at 25 µM [2]: 91.4% | activity at 25 µM [3]: 96.2% | activity at 25 µM [4]: 92.7% | activity at 100 µM [5]: 78.1% | activity at 100 µM [6]: 74.5% | Percent fungal survival at 100 µM (replicate 2): 80.2% | activity at 100 µM [7]: 79.6%

CCc1cc(CCCOc2c(C)cc(-c3noc(C(F)(F)F)n3)cc2C)on1 [MMV1634556]
activity at 25 µM [1]: 87% | activity at 25 µM [2]: 70.7% | activity at 25 µM [3]: 105% | activity at 25 µM [4]: 85.5% | activity at 100 µM [16]: 76.5% | activity at 100 µM [5]: 73% | activity at 100 µM [17]: 74.6% | activity at 100 µM [18]: 68%

O=C(O)c1ccccc1Sc1ncnc2sc3c(c12)CCC3 [MMV1579878]
activity at 25 µM [19]: 83.5% | activity at 25 µM [2]: 89.3% | activity at 25 µM [3]: 87% | activity at 25 µM [4]: 74.1% | activity at 100 µM [20]: 57% | activity at 100 µM [21]: 1.56% | activity at 100 µM [22]: 73.3% | activity at 100 µM [23]: 96.2%

CCn1cc(C(=O)O)c(=O)c2cc(F)c(N3CCNC(C)C3)c(F)c21 (stereo not drawn) [MMV002350]
activity at 25 µM [24]: 91.3% | activity at 25 µM [25]: 97.9% | activity at 25 µM [26]: 93.8% | activity at 25 µM [27]: 82.3% | activity at 100 µM [28]: 89% | activity at 100 µM [29]: 92.8% | activity at 100 µM [30]: 92.2% | activity at 100 µM [31]: 82.2%

Cc1c(F)cccc1NC(=O)Nc1ccc(Cl)c(S(=O)(=O)[C@H]2CCCNC2)c1O [MMV1581034]
activity at 25 µM [24]: 83.9% | activity at 25 µM [25]: 82% | activity at 25 µM [26]: 88.9% | activity at 25 µM [27]: 80.7% | activity at 100 µM [28]: 77.6% | activity at 100 µM [29]: 82.8% | activity at 100 µM [30]: 73.6% | activity at 100 µM [31]: 76.3%

Source: publication PMC8815882, “Screening the pandemic response box identified benzimidazole carbamates, Olorofim and ravuconazole as promising drug candidates for the treatment of eumycetoma” (PLoS Neglected Tropical Diseases, 2022)
